# Measured values reported in article PMC12775124, “CUL4A-DDB1-DCAF10 is an N-recognin for N-terminally acetylated Src kinases” (Nature Communications, 2026).
# Experiments:
# human NatA = target: T1, human NatA (Homo sapiens, UniProt P41227+Q9BXJ9); experiment: In vitro Nt-acetylation assay (NatA, CPM fluorescence); assay type: biochemical
# T1 construct: Human NatA (hNatA) full-length (FL) was cloned; made in house; host or cells: Tnao38 insect cells (baculovirus, pFL vector)
# T1 sequence (P41227 1-235): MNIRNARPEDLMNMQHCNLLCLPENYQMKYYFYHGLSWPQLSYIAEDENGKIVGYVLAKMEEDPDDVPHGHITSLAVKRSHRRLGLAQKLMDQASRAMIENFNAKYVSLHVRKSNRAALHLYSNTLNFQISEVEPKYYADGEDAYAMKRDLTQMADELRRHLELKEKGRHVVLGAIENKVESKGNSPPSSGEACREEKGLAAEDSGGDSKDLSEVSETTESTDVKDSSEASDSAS
# T1 sequence (Q9BXJ9 1-866 partner): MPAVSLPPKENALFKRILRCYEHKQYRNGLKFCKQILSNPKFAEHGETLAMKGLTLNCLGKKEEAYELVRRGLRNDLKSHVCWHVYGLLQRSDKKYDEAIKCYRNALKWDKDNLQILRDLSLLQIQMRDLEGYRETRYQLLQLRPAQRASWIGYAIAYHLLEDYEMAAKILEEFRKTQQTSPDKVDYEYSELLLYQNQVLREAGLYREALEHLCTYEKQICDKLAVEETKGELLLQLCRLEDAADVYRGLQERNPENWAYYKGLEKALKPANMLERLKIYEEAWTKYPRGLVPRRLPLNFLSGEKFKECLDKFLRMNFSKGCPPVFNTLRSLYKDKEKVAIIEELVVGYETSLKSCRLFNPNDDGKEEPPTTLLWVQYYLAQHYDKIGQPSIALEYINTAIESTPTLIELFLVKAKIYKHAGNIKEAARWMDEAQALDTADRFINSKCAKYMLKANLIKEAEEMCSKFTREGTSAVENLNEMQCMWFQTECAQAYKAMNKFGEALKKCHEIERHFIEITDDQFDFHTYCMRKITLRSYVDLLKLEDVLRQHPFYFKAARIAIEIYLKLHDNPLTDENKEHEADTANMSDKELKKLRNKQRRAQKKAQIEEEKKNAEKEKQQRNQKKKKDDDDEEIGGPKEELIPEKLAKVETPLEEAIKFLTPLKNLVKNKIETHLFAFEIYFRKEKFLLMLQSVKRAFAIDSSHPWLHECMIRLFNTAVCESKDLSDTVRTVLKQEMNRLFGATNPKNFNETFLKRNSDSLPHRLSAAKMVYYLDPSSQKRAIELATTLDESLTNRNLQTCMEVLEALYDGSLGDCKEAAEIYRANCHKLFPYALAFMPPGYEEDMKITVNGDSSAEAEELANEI
# Method: Gly-starting proteins can be substrates of the Nt-acetyltransferase NatA[3],[21]. Having established direct DCAF10 binding to Ac-Gly N-termini, we next asked whether SFK N-termini are bona fide NatA substrates. We developed an in vitro Nt-acetylation assay comprising purified NatA, acetyl-CoA (Ac-CoA), and the peptide of interest (Fig. 3a, b)[33]. Acetyl-group transfer was assessed using CPM [7-(diethylamino)−3-(4′-maleimidophenyl)−4-methylcoumarin], which reacts specifically with free thiol groups to produce a highly fluorescent product (excitation: 390 nm; emission: 479 nm), allowing detection of CoA production after acetyl-group transfer to the peptide (Supplementary Fig. 4e). We optimized the conditions to determine Michaelis–Menten kinetics for NatA-mediated Nt-acetylation with a target peptide ([…]) previously used for NatA assays and co-crystallization (Supplementary Fig. 4f)[34]. […] Likely, this was due to a Km even higher than that of Src, and implying that the peptide concentrations in the assay might have been insufficient for the reaction to proceed with an appreciable rate. […] Negative controls (COX17 and Ac-Lyn) produced low signals. […] Given the direct association of NatA with SFK N-termini at the ribosomal exit tunnel, however, we surmise that Nt-acetylation of SFKs in cells may proceed despite these unfavorable kinetic parameters.
# The assay was performed essentially as described previously. Briefly, peptide substrates (Supplementary Table 1) were incubated with purified human NatA and acetyl-CoA; acetylation was quantified by CPM fluorescence (CoA detection), and Michaelis–Menten parameters were derived from 8-point 1:1 dilution series within the linear range (n = 4 independent enzymatic assays). Full buffer compositions, reagent concentrations, plate format, instrument settings, controls, and fitting procedures are provided in the Supplementary Methods and Tables. […]
# 301 Cloning, expression, and purification of human NatA
# 302 Human NatA (hNatA) full-length (FL) was cloned in a pFL vector expressing both
# 303 genes, NAA15 with a 6× C-term histidine tag (NAA15-6xHIS) and NAA102. The
# 304 expression was carried out in insect cells (Tnao38) for 72 h infected 1:20 with
# 305 baculovirus. Washed cell pellets were lysed by sonication in a lysis buffer containing 200
# 306 mM NaCl, 50 mM HEPES pH 8.0, 20 mM Imidazole, and 2 mM TCEP. The protein
# 307 purification was performed as a three-step purification, starting with an affinity nickel
# 308 column, followed by an ion-exchange column with a gradient of 50–300 mM NaCl, and
# 309 finished with size exclusion chromatography (SEC) using an S200 10/300 column. The
# 310 main peaks were collected, and the protein was concentrated in the SEC buffer (150 mM
# 311 NaCl, 50 mM HEPES pH 8.0, 1 mM EDTA). The purified hNatA was flash-frozen in
# 312 liquid nitrogen and stored at -80°C.
# 314 In vitro Nt-acetylation assay
# 315 The method has been described in detail previously2. Briefly, different peptides
# 316 (Supplementary Table 1) and concentrations (an eight-step, 1:1 dilution series for
# 317 Michaelis-Menten curves) as indicated were incubated with 20 nM hNatA and 80 µM Ac-
# 318 CoA in reaction buffer (50 mM HEPES pH 8.0, 0.5 mM EDTA, 0.005% CHAPS) for 60
# 319 (Src) or 120 min (Lyn), at RT in a 384-well microplate (Corning 4514) (n = 4).
# 320 Afterwards, the enzymatic reaction was stopped by adding 1:1 DMSO with 10 µM (final
# 321 concentration 5 µM) of the thiol reactive CPM (7-Diethylamino-3-
# 322 (4'Maleimidylphenyl)4-Methylcoumarin). After 1 h at RT, the readout was performed
# 323 with a Tecan Spark® Multimode Microplate Reader (excitation 390 nm, emission 479
# 324 nm). Background values at 0 µM peptide were subtracted, and control reactions omitting
# 325 NatA or Ac-CoA were performed. Dilution series of CoA incubated with 5 µM CPM were
# 326 used to generate a linear equation (y = 10.99*x + 81.06) to calculate acetylation velocities
# 327 for NatA-mediated peptide acetylation. […]
# DCAF10 = experiment: Peptide pull-down with quantitative MS, HeLa lysate, DCAF10; assay type: binding, human (HeLa)
# Method: Beads presenting 10-residue synthetic Nt-peptides of proteins of interest in their free (Nt-free) or modified (e.g., Nt-acetylated) versions were incubated with lysates from HeLa cells, followed by MS-based quantification of retained binders (Fig. 1a).
# Biotinylated 10-mer Nt-peptides (Nt-free, Nt-acetylated, and, where indicated, Nt-myristoylated; sequences in Supplementary Table 1) were synthesized with a C-terminal Lys3 spacer and biotin, immobilized on magnetic streptavidin beads, and incubated with HeLa or mouse liver lysates. After standardized washes, bound proteins were on-bead reduced/alkylated, digested with LysC/trypsin, desalted, and analysed by LC-MS in DIA mode (Orbitrap Exploris 480) as described previously[24]. Variants included endogenous Nt-sequences, swap and mutant (Ala-Ala-Ala or Nt-amino acids) peptides, and pairwise comparisons of conditions of interest.
# All MS experiments were performed as independent biological triplicates. Relative protein quantification was carried out using the label-free algorithm integrated in DIA-NN[53], and statistical testing was performed in Perseus using a two-sided Student’s t test with permutation-based multiple-testing-adjusted p-values[53],[54], as specified in the figure legends. […] Volcano blots were visualized with RStudio (version 2023.06.0). […] Cell experiments were performed as biological replicates, and binding assays as independent assays. […] Data are presented as mean ± s.d. Fold changes are reported as the ratio of the normalized value for the condition of interest to the normalized control value, with mean ± s.d. computed across biological replicates.
# GST-DCAF10 = experiment: Streptavidin pull-down of GST-DCAF10 with biotinylated Nt-peptides; assay type: binding, human; details: 0.5 µM GST-DCAF10, 5 µM peptide, 1 h RT; WB
# Method: To confirm direct interactions between peptides and DCAF10, we performed pull-down assays using bead-bound Nt-peptide variants incubated with purified full-length GST-DCAF10 or GST as a negative control (Fig. 2m–p and Supplementary Fig. 4a).
# 230 of 1:100), and desalted/concentrated on C18 reversed phase stage tips as previously
# MS measurements settings are stated in MS measurements and raw file
# BL21(DE3) cells (Thermo Fisher Scientific,
# 240 agar) plate containing 100 μg/mL ampicillin and 34 μg/mL chloramphenicol, then
# Terrific broth (TB) medium (24 g/L yeast extract,
# 243 20 g/L tryptone, glycerol 4 mL/L, 100 mL/L phosphate buffer containing 0.17 M KH2PO4
# 244 and 0.72 M K2HPO4) was used to prepare a 1:100 dilution of the starter culture, and OD600
# At OD600 = 1, protein induction was initiated by adding 1 mM
# 247 day, pellets were homogenized and lysed in glycerol lysis buffer (20 mM Tris-HCl pH
# Lysis was performed on ice for 30 min, followed by
# 250 sonication (7 × 20 sec pulses with 20 sec breaks on ice) using a Bandelin sonoplus
# Lysates were centrifuged at 4°C for 1 h
# 253 medium culture was lysed in 20 mL of supernatant (collected in 20 × 1 mL tubes). GST
# 255 agarose bead; Thermo Fisher Scientific, Waltham, MA, USA). For each 1 mL of
# 100 μL of GST magnetic beads
# 257 were washed twice with 500 μL of wash buffer (125 mM Tris-HCl pH 7.4, 150 mM NaCl,
# The lysis supernatant was diluted 1:1 with
# 259 wash buffer, and incubated with the beads on an end-over-end rotator for 1 h at 25°C.
# 260 After incubation, the supernatant was removed, and the beads were washed twice with
# Protein elution was then performed by incubating
# 263 pH 7.4, 250 mM NaCl, 0.3% Triton X-100) for 30 min at 25°C on an end-over-end rotator.
# 265 under the same conditions. Elution fractions were pooled and concentrated by
# 266 centrifugation (4°C, 25 min, 4500 rpm) using a 30 kDa cut-off concentrator (Merck
# 267 Millipore, #UFC803008, Darmstadt, Germany). Purified proteins were analyzed by
# 268 colloidal Coomassie stain, WB and MS.
# 270 Streptavidin pull-downs with GST-DCAF10 and biotinylated peptides
# 271 Streptavidin magnetic beads (DynabeadsTM MyOneTM Streptavidin T1; Thermo Fisher
# 272 Scientific, Waltham, MA, USA) were washed twice with 500 μL of wash buffer (125 mM
# 273 Tris-HCl pH 7.4, 150 mM NaCl, 0.1% Triton X-100). An excess of peptides was added
# 274 (to ensure full occupancy of the beads) and incubated for 30 min at RT. After peptide
# 275 binding, beads were again washed three times with 500 μL of wash buffer. The pull-down
# 276 was then performed in a 100 μL reaction volume with final concentrations of 0.5 µM
# 277 GST-DCAF10 and 5 µM peptide. GST-DCAF10 or GST alone (as a control) was added
# 278 to the peptide-streptavidin beads and incubated on a rotator for 1 h at RT. After incubation,
# 279 the beads were washed three times with 500 μL of wash buffer and resuspended in 4x
# 280 Laemmli buffer. 1/5 of the input (GST-DCAF10 and GST) and 9/10 of the sample were
# 281 loaded on a 10% SDS gel and blotted with anti-GST and anti-DCAF10 antibodies, while
# 282 1/10 was loaded on a 15% SDS gel and blotted with anti-streptavidin antibody to assess
# 283 equal peptide loading.
# 285 Streptavidin Sepharose High Performance, GE Healthcare, Chicago, IL, USA) were used.
# 286 After washing with a high salt wash buffer without detergents (125 mM Tris-HCl pH 7.4,
# 287 400 mM NaCl), an excess of peptides was added and incubated for 30 min at RT. For each
# 288 reaction, 10 µL of slurry beads were used. After peptide-binding, beads were again
# 289 washed once with a high salt wash buffer without detergents and twice with binding buffer
# 290 without detergents (125 mM Tris-HCl pH 7.4, 150 mM NaCl). The pull-downs were
# 291 performed in a 100 μL reaction volume in binding buffer without detergents with a final
# 292 concentration of 0.5 µM GST-DCAF10 and incubated rotating for 1 h at RT. After
# 293 incubation, the beads were washed five times with 500 μL of high salt wash buffer without […]
substance,measurement,setting,value
NatA target peptide: target peptide previously used for NatA assays and co-crystallization (SASEAGVRWG) [reference compound],Km,"human NatA; 20 nM NatA, 80 µM Ac-CoA, pH 8.0, RT, 60 min, CPM fluorescence 390/479 nm, mean ± s.d., n = 4, read-out: Km",8.4 ± 1.7 µM
"GAVTDDEVIRKK [Ac-THOC7, Nt-peptide of THOC7, Nt-acetylated]",DCAF10 binding (in words),"DCAF10; HeLa lysate, Nt-Ac vs Nt-free peptides",did not bind DCAF10 significantly
same,Binding to GST-DCAF10 (in words),GST-DCAF10,neither Nt-acetylated nor Nt-free THOC7 peptides or GST alone bound DCAF10
"PGLVDSNPAPKK [COX17, Pro-starting peptide from COX17, negative control, reference compound]",Nt-acetylation by NatA (in words),"human NatA; original assay, peptide up to 160 μM",no detectable acetylation
same,Nt-acetylation by NatA (in words),human NatA; starting peptide concentration 1 mM,low signals
"GAVKSKEVIRKK [Ac-THOC7^swap, THOC7 peptide carrying Lys5-Ser6-Lys7 of Lyn]",Reversal of preference after swapping positions 5–7,DCAF10; Ac-Lyn^swap vs Ac-THOC7^swap relative to WT comparison,~ 133 fold
same,DCAF10 binding of swap peptide vs its WT (in words),"DCAF10; direct comparisons Ac-Lyn vs Ac-Lyn^swap and Ac-THOC7 vs Ac-THOC7^swap, HeLa lysate",increased binding
"PCIKSKGKDSKK [Lyn^G2P, Nt-free Pro mutant Nt-peptide of Lyn]",DCAF10 binding of Nt-mutant peptides (in words),DCAF10; n = 3 replicates,failed to bind DCAF10 in all replicates
